Molecular target: FrbG (Streptomyces rubellomurinus, UniProt Q0ZQ42, H221A)
Assay: NADPH oxidation at […] nm
Type: biochemical
Conditions: 500 μM substrate; 200 μM NADPH; 5 μM enzyme; 50 mM HEPES

Sequence of FrbG (Q0ZQ42 whole entry H221A): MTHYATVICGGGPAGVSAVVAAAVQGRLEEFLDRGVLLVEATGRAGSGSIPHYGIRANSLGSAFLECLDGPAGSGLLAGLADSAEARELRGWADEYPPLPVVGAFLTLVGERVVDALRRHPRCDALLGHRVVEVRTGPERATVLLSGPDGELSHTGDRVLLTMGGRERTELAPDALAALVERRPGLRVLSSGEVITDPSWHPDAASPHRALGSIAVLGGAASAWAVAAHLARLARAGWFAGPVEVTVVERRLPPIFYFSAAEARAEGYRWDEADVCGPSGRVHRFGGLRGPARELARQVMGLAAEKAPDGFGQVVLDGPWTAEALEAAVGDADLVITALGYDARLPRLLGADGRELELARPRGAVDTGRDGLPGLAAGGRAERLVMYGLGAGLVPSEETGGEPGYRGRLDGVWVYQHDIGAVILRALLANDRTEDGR

NCCCP(=O)(O)OP(=O)(O)OC[C@H]1O[C@@H](n2ccc(N)nc2=O)[C@H](O)[C@@H]1O [compound 4, CMP-5’-3APn]
NADPH oxidation at 340 nm: FrbG-H221A had significantly higher rates for both NADPH oxidation and substrate hydroxylation

Reference: paper PMC6365201 (Organic & biomolecular chemistry, 2019)
